Measurements: patent publication US10226501B2, “Method of orally administering a date fruit extract to treat breast cancer” (King Abdulaziz University, priority 2017, dated 2019)

Test system: female Wistar rats having DMBA-induced breast cancer
Assay: Serum antioxidant enzyme activities in rats with DMBA-induced breast cancer
Format: in vivo, rat
Details: oral, daily for three months, ADE 1 or 0.5 g/kg b.w., melatonin 2.5 mM
Source text: This is an in vivo experiment showing the improvement of Ajwa Date Extract (ADE) on the antioxidant system in rats having breast cancer induced by 7,12-Dimethylbenz[a]anthracene (DMBA).
The experiment of DMBA-induced breast cancer in female Wistar rats was comprised of six different treatment groups: the untreated controls (administered normal diet), DMBA-treated, DMBA-treated and orally administered 1 g/kg b.w. (body weight) of ADE, DMBA-treated and orally administered 0.5 g/kg b.w. of ADE, DMBA-treated and administered orally 2.5 mM melatonin, and DMBA-treated and administered 2.5 mM melatonin plus 1 g/kg b.w. of ADE. All six groups were treated daily for three months. On sacrification day, samples of blood were collected with the serum being separated and stored at −80° C.
The collected sera were analyzed for four mean activities namely, of superoxide dismutase (SOD) catalase, glutathione reductase (GR), and glutathione peroxidase (GPx). The means of the four activities in sera of the six treatment groups are illustrated in FIGS. 4-7. The mean serum SOD (FIG. 4), catalase (FIG. 5), GR (FIG. 6), and GPx (FIG. 7) in DMBA and ADE and/or melatonin administered rats was higher than that of the DMBA administered rats that were deprived of the ADE and/or melatonin.

COc1ccc2[nH]cc(CCNC(C)=O)c2c1 [melatonin]
higher: mean serum SOD activity (compared with DMBA-only rats (FIG. 4)) | mean serum catalase activity (compared with DMBA-only rats (FIG. 5)) | mean serum GR activity (compared with DMBA-only rats (FIG. 6)) | mean serum GPx activity (compared with DMBA-only rats (FIG. 7))
